In assay [1] the target is T1, Histone-lysine N-methyltransferase EHMT2 (Homo sapiens) (UniProt Q96KQ7).
T1 sequence (whole entry): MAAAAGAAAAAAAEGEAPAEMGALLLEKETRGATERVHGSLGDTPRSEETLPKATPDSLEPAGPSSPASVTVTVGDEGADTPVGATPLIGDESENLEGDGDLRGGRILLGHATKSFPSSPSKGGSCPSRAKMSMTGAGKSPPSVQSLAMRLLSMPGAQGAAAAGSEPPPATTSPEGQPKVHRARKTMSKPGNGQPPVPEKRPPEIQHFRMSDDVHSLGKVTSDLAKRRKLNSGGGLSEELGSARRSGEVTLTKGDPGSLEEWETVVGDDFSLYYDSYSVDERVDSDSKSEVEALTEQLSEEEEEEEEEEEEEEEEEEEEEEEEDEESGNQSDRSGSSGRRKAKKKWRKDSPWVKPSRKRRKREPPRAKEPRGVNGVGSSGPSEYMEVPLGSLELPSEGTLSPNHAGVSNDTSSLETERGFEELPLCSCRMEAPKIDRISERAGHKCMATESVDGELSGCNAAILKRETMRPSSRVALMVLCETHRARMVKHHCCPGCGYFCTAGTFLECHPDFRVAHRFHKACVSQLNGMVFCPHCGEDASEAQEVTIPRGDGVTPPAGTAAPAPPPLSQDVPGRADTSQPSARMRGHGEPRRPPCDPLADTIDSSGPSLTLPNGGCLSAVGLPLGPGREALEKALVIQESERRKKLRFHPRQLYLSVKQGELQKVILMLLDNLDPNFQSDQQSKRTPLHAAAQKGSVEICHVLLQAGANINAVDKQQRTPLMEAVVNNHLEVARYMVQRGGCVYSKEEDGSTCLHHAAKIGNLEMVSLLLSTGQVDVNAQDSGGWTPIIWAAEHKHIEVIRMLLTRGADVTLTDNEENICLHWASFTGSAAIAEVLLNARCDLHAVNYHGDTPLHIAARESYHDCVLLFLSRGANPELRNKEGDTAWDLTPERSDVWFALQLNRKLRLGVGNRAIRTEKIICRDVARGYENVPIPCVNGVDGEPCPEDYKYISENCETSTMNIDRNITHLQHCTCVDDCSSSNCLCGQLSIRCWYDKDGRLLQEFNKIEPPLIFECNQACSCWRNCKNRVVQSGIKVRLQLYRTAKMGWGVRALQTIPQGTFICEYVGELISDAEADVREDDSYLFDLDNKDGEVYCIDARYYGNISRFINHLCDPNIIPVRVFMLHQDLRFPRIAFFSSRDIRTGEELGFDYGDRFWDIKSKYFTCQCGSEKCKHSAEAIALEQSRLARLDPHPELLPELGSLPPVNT
Description: Inhibition of wild type recombinant human histone lysine methyltransferase G9a (913 to 1193 residues) expressed in Escherichia coli Rosetta BL21 DE3 PlysS assessed as zinc ions ejection from Cys4-Zn finger at >50 uM after 1 hr by circular dichroism analysis. On the technique in general: Circular dichroism is widely used to follow secondary structure.

For assay [2], the target named is T2, Histone-lysine N-methyltransferase EHMT1 (Homo sapiens) (UniProt Q9H9B1).
T2 sequence (whole entry): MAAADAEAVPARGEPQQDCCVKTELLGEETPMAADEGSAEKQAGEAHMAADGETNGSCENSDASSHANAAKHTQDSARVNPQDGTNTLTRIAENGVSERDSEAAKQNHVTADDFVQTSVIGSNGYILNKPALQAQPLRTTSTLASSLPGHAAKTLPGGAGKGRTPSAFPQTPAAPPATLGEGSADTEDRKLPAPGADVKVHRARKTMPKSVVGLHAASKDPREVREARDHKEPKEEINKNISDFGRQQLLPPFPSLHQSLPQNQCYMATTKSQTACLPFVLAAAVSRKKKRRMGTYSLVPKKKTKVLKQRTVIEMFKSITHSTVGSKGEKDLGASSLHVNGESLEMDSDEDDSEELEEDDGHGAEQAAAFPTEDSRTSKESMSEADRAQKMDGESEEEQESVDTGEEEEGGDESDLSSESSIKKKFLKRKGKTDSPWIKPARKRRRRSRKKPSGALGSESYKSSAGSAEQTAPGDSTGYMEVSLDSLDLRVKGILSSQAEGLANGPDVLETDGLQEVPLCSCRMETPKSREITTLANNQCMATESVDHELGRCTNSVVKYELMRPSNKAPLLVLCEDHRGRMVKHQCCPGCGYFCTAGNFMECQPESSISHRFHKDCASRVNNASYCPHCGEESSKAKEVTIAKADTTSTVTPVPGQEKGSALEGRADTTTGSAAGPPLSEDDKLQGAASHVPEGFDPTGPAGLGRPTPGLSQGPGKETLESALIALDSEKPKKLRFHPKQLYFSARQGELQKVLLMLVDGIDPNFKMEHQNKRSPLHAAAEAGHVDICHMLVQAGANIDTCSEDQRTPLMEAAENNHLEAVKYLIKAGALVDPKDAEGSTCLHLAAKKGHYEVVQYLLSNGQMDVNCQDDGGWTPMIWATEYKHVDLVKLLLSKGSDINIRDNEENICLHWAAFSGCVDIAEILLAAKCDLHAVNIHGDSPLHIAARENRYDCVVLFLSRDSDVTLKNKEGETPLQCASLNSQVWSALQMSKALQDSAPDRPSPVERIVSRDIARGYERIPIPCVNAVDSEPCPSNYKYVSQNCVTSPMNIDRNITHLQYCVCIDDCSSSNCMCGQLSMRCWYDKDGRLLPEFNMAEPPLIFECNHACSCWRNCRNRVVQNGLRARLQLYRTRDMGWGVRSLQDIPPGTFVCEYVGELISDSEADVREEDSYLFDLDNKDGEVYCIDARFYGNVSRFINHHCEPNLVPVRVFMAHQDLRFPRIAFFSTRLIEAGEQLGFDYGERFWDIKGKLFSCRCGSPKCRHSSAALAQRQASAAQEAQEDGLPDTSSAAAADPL
Description: Inhibition of wild type recombinant human histone lysine methyltransferase GLP (951 to 1235 residues) expressed in Escherichia coli Rosetta BL21 DE3 PlysS assessed as zinc ions ejection from Cys4-Zn finger at 2.5 to 100 uM after 500 to 3500 secs by FluoZin-3 based fluorescence assay.

Assay [3] addresses T2, Histone-lysine N-methyltransferase EHMT1 (Homo sapiens). Description: Inhibition of wild type recombinant human histone lysine methyltransferase GLP (951 to 1235 residues) expressed in Escherichia coli Rosetta BL21 DE3 PlysS assessed as zinc ions ejection from 3 types of Cys9-type Zn fingers at >50 uM after 1 hr by circular dichroism analysis.
Assay [4] concerns the target T3, Histone-lysine N-methyltransferase EHMT2 (Homo sapiens, UniProt Q96KQ7).
T3 sequence (Q96KQ7 whole entry): T1 sequence (whole entry)
Description: Inhibition of wild type recombinant human histone lysine methyltransferase G9a (913 to 1193 residues) expressed in Escherichia coli Rosetta BL21 DE3 PlysS using ARTKQTARKSTGGKA as substrate preincubated for 5 mins followed by substrate/SAM addition measured after 60 mins by MALDI-TOF MS analysis.

Assay [5] deals with T2, Histone-lysine N-methyltransferase EHMT1 (Homo sapiens). Description: Inhibition of wild type recombinant human histone lysine methyltransferase GLP (951 to 1235 residues) expressed in Escherichia coli Rosetta BL21 DE3 PlysS assessed as zinc ions ejection from Cys4-Zn finger at >25 uM after 1 hr by circular dichroism analysis.

Molecules are shown by their SMILES. Active and inactive are the calls of the source. The rule behind the calls is not given here.

With `CCN(CC)C(=S)SSC(=S)N(CC)CC`, the inhibition result in assay [1], in assay [2] and in assay [3] was “Active” in each case.

In general, IC50 refers to the concentration needed to halve the response being measured. As for `O=c1c2ccccc2[se]n1-c1ccccc1` [EBSELEN], in assay [4], the IC50 came to 400 nM. The inhibition entry in assay [5] is “Active”.

Values taken from ChEMBL document CHEMBL4184305, “Inhibition of histone lysine methyltransferases G9a and GLP by ejection of structural Zn(II)” (Bioorg Med Chem Lett, 2018).
